Series [1] in a line: Parallel artificial membrane permeability assay (PAMPA-GIT, PAMPA-BBB, PAMPA-SKIN). The format is in vitro ADME. Conditions: isoflavones from red clover extracts, donor 12.5 mg/mL, pH 7.4, 4 h at 37 °C, BBB and SKIN membranes; for Papp at 4 h, 12.5 mg/mL: PAMPA, read-out: Apparent permeability coefficient (Papp). As for the experimental part:
Then, 200 μL of the donor solution was added to the donor wells. Subsequently, each filter membrane of the top plate was coated with a suitable lipid solution, i.e., 5 μL BBB, GIT or preincubated with hydration buffer 24 h earlier for SKIN assay (Pion Inc., Billerica, MA, USA), and the acceptor well was filled with 200 μL of acceptor fluid. The acceptor plate and the donor plate were coupled together and incubated for 4 h at 37 °C. After incubation, the plates were separated, and the concentrations of compounds that crossed the membrane were determined using HPLC. To calculate Papp, the following equation was used:(3) Papp=−ln1−CA/Cequilibrium/S×1/VD+1/VA×t where Papp—effective permeability coefficient (cm/s), VD—donor volume, VA—acceptor volume, Cequilibrium—equilibrium concentration, S—membrane area, and t—incubation time (in seconds).
Samples were analyzed in triplicate.
In general terms: In PAMPA a lipid-coated filter parts donor from acceptor wells.

Another series addresses collagenase. As to the kind of experiment: Collagenase inhibition assay. The class given is biochemical. The following applies: positive control. The method, then: The collagenase inhibitory activity of each sample was determined in vitro according to Widodo et al. with some modifications. In summary, 15.0 μL of enzyme, 60 μL of tricine buffer (pH 7.5) and 30 μL of extracts (50 mg/mL) were mixed and incubated at 37 °C for 20 min. Next, 20 μL of FALGPA (0.5 mM) was added to the mixture, and the absorbance was immediately measured at 325 nm using the plate reader (Multiskan GO 1510, Thermo Fisher Scientific, Vantaa, Finland). The absorbance was measured again after 20 min of incubation at 37 °C following the addition of the substrate. A control sample containing only the solvent used instead of the extract was performed, and the results were reduced by the value of the blank representing the enzyme-free sample. The positive control was a sample containing a solution of epigallocatechin gallate instead of the extract tested. The collagenase inhibition rate (presented for the final concentration of substance in enzymatic reaction) expressed as a percentage of inhibition was calculated using Formula (2).

Series [2] can be described thus: CUPRAC assay (antioxidant activity). Conditions: standard substance. The method, then: To create the CUPRAC reagent, a conical flask wrapped in aluminum foil was used. Equal volumes of a 7.5 mM neocuproine solution in 96% ethanol, a 10 mM aqueous copper chloride solution and an ammonium acetate buffer solution (pH = 7) were added to the flask. In the 96-well plate, 50.0 µL of the test sample and 150.0 µL of the CUPRAC reagent solution were combined. The blank consisted of a mixture of the CUPRAC reagent and the solvent used for extraction. The assay was replicated six times. The plate was covered with aluminum foil, shaken for 5 min at 25 °C and then incubated at room temperature for 25 min. The absorbance was measured at 450 nm using a plate reader (Multiskan GO 1510, Thermo Fisher Scientific, Vantaa, Finland). […] This value was determined using a polynomial trend line.

Series [3] can be described thus: DPPH assay (free radical scavenging). The following applies: standard substance. As for the experimental part:
In summary, a 96-well plate was used for the assay. Each well contained 25.0 μL of the test sample and 175.0 μL of a DPPH radical solution (3.9 mg/50 mL) in methanol. The control sample consisted of the DPPH radical solution and the solvent used for extraction, while the blank represented the absorbance value obtained from combining 25.0 μL of the extraction solvent with 175.0 μL of the solvent used to dissolve the DPPH radical (methanol). This procedure was repeated six times. The plate was shaken for 5 min at 25 °C and then incubated for 25 min at room temperature. The absorbance was measured at 517 nm using a plate reader (Multiskan GO 1510, Thermo Fisher Scientific, Vantaa, Finland). The free radical scavenging capacity (%) of the test extracts and the standard substance was calculated using the following equation:(1) […] activity%=A0-A1/A0×100% where A0 is the absorbance of the control, and A1 is the absorbance of the tested sample.

On the set-up of series [4]: method as in PMID 29504397. The following applies: rat study; cited from earlier work.

For orientation: Papp means the rate of passage across a membrane or cell layer, normalised by area and donor concentration. Consider `COc1ccc(-c2coc3cc(O)cc(O)c3c2=O)cc1` [biochanin A], for which the Papp at 4 h, 12.5 mg/mL in series [1] was above 1 ×10⁻⁶ cm/s.

For the compound `O=C(O[C@@H]1Cc2c(O)cc(O)cc2O[C@@H]1c1cc(O)c(O)c(O)c1)c1cc(O)c(O)c(O)c1` [EGCG, epigallocatechin gallate], at collagenase, the “Collagenase inhibition IC50” value is listed as “IC50 = 0.666 ± 0.007 mg/ml”.

Turning to `O=c1c(-c2ccc(O)cc2)coc2cc(O)cc(O)c12` [genistein], the “Apparent permeability coefficient (Papp)” value in series [1] is “did not show such permeability”.

As for `O=C1O[C@H]([C@@H](O)CO)C(O)=C1O` [Ascorbic acid], in series [2], the “CUPRAC IC50” value came to 73 ± 3 µg/mL. Moreover, the “DPPH IC50” value in series [3] amounted to 68 ± 5 µg/mL.

In general, bioavailability refers to dose-corrected exposure relative to a reference, in per cent. Turning to `COc1ccc(-c2coc3cc(O)ccc3c2=O)cc1` [formononetin], the Papp at 4 h, 12.5 mg/mL in series [1] was above 1 ×10⁻⁶ cm/s. For the same compound, the bioavailability in series [4] was 21.8%.
